In PubChem BioAssay (NCI):
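Cultured in 96-well plates, cells were exposed to test compound for 48 hours across five concentrations. GI50 = concentration required for 50% inhibition of growth. TGI: concentration producing complete growth inhibition.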

How the values were obtained:
Test in all cases: NCI-60 cell line screen, 48 h
RXF 393 renal = tested on: RXF 393 renal
TK-10 renal = tested on: TK-10 renal
U251 CNS = tested on: U251 CNS
RPMI-8226 leukemia = tested on: RPMI-8226 leukemia
KM12 colon = tested on: KM12 colon
OVCAR-4 ovarian = tested on: OVCAR-4 ovarian
A549 NSCLC = tested on: A549 NSCLC
HCC-2998 colon = tested on: HCC-2998 colon
HCT-15 colon = tested on: HCT-15 colon
786-0 renal = tested on: 786-0 renal
MDA-N = tested on: MDA-N

## Cc1ccc(S(=O)(=O)OC[C@@]2(C)CC[C@]3(C)CC[C@]4(C)C(=C3C2)C=C[C@@H]2[C@@]3(C)CCCNC(C)(C)[C@@H]3CC[C@]24C)cc1
RXF 393 renal
  GI50: 1.35 µM
  TGI: 2.86 µM
TK-10 renal
  GI50: 1.88 µM
  TGI: 3.59 µM
U251 CNS
  GI50: 1.66 µM
  TGI: 3.17 µM
RPMI-8226 leukemia
  GI50: 2.12 µM
  TGI: 4.63 µM
KM12 colon
  GI50: 1.86 µM
  TGI: 3.57 µM
OVCAR-4 ovarian
  GI50: 1.66 µM
  TGI: 3.16 µM

## O=C(/C=C/c1ccc(OCc2ccccc2)cc1)NCc1ccc(C(=O)NCCc2ccccc2)cc1
RXF 393 renal
  TGI: > 100 µM
TK-10 renal
  TGI: > 100 µM
A549 NSCLC
  TGI: > 100 µM
U251 CNS
  TGI: > 100 µM
HCC-2998 colon
  TGI: > 100 µM
HCT-15 colon
  TGI: > 100 µM
786-0 renal
  TGI: > 100 µM
KM12 colon
  TGI: > 100 µM
MDA-N
  TGI: > 100 µM
OVCAR-4 ovarian
  TGI: > 100 µM

## NC(=S)NNCC(=O)CC(O)(C(F)(F)F)C(F)(F)Cl (stereo not drawn)
RXF 393 renal
  TGI: > 100 µM
TK-10 renal
  TGI: > 100 µM
A549 NSCLC
  TGI: > 100 µM
U251 CNS
  TGI: > 100 µM
HCT-15 colon
  TGI: > 100 µM
RPMI-8226 leukemia
  TGI: > 100 µM
786-0 renal
  TGI: > 100 µM
KM12 colon
  TGI: > 100 µM
MDA-N
  TGI: > 100 µM
OVCAR-4 ovarian
  TGI: > 100 µM

## CNC(=S)N/N=C/C(C)=N/NC(=S)NC
RXF 393 renal
  TGI: > 100 µM
TK-10 renal
  TGI: > 100 µM
A549 NSCLC
  TGI: > 100 µM
U251 CNS
  TGI: > 100 µM
HCC-2998 colon
  TGI: > 100 µM
HCT-15 colon
  TGI: > 100 µM
RPMI-8226 leukemia
  TGI: > 100 µM
786-0 renal
  TGI: > 100 µM
KM12 colon
  TGI: > 100 µM

## O/N=C\c1c2c(cc3c1CCC3)CCC2
TK-10 renal
  TGI: > 100 µM
A549 NSCLC
  TGI: > 100 µM
U251 CNS
  TGI: > 100 µM
HCC-2998 colon
  TGI: > 100 µM
HCT-15 colon
  TGI: > 100 µM
RPMI-8226 leukemia
  TGI: > 100 µM
786-0 renal
  TGI: > 100 µM
KM12 colon
  TGI: > 100 µM
MDA-N
  TGI: > 100 µM
OVCAR-4 ovarian
  TGI: > 100 µM

## CN(C(=O)Cc1ccccc1)n1cn[n+](CC(=O)OC(C)(C)C)c1
TK-10 renal
  TGI: > 10 µM
A549 NSCLC
  TGI: > 10 µM
U251 CNS
  TGI: > 10 µM
HCC-2998 colon
  TGI: > 10 µM
HCT-15 colon
  TGI: > 10 µM
RPMI-8226 leukemia
  TGI: > 10 µM
786-0 renal
  TGI: > 10 µM
KM12 colon
  TGI: > 10 µM
MDA-N
  TGI: > 10 µM
OVCAR-4 ovarian
  TGI: > 10 µM

## Cc1c2cc[n+](Cc3ccc(I)cc3)cc2c(C)c2c1[nH]c1ccccc12
RXF 393 renal
  TGI: > 25 µM
A549 NSCLC
  TGI: > 25 µM
U251 CNS
  TGI: 8.59 µM
HCC-2998 colon
  TGI: 5.25 µM
HCT-15 colon
  TGI: > 25 µM
RPMI-8226 leukemia
  TGI: 2.4 µM
KM12 colon
  TGI: 1.83 µM

## C/C(=C\C(=O)Nc1ccc2n[nH]nc2c1)Nc1ccc2n[nH]nc2c1
RXF 393 renal
  TGI: > 100 µM
TK-10 renal
  TGI: > 100 µM
A549 NSCLC
  TGI: > 100 µM
U251 CNS
  TGI: > 100 µM
HCC-2998 colon
  TGI: > 100 µM
HCT-15 colon
  TGI: > 100 µM
RPMI-8226 leukemia
  TGI: > 100 µM
786-0 renal
  TGI: > 100 µM
KM12 colon
  TGI: > 100 µM
OVCAR-4 ovarian
  TGI: > 100 µM

## O=CN1CCN(c2ccc3ccc(=O)[nH]c3n2)CC1
TK-10 renal
  TGI: > 100 µM
A549 NSCLC
  TGI: > 100 µM
U251 CNS
  TGI: > 100 µM
HCC-2998 colon
  TGI: > 100 µM
HCT-15 colon
  TGI: > 100 µM
RPMI-8226 leukemia
  TGI: > 100 µM
786-0 renal
  TGI: > 100 µM
KM12 colon
  TGI: > 100 µM
MDA-N
  TGI: > 100 µM
OVCAR-4 ovarian
  TGI: > 100 µM

## CCOC(=O)c1ccc(N(CCOS(C)(=O)=O)CCOS(C)(=O)=O)cc1
RXF 393 renal
  TGI: 38.5 µM
TK-10 renal
  TGI: > 100 µM
A549 NSCLC
  TGI: > 100 µM
U251 CNS
  TGI: > 100 µM
HCC-2998 colon
  TGI: > 100 µM
HCT-15 colon
  TGI: > 100 µM
RPMI-8226 leukemia
  TGI: > 100 µM
KM12 colon
  TGI: > 100 µM
MDA-N
  TGI: > 100 µM
OVCAR-4 ovarian
  TGI: > 100 µM

## CC(C)(C)OC(=O)Cn1ncn(NC(=O)Cc2ccccc2)c1=S
TK-10 renal
  TGI: > 10 µM
A549 NSCLC
  TGI: > 10 µM
U251 CNS
  TGI: > 10 µM
HCC-2998 colon
  TGI: > 10 µM
HCT-15 colon
  TGI: > 10 µM
786-0 renal
  TGI: > 10 µM
KM12 colon
  TGI: > 10 µM
MDA-N
  TGI: > 10 µM
OVCAR-4 ovarian
  TGI: > 10 µM

## CSc1c(C(C)=O)c(O)n(-c2ccc(C)cc2)c(=O)c1C#N
RXF 393 renal
  TGI: > 100 µM
TK-10 renal
  TGI: > 100 µM
A549 NSCLC
  TGI: > 100 µM
U251 CNS
  TGI: > 100 µM
HCC-2998 colon
  TGI: > 100 µM
HCT-15 colon
  TGI: > 100 µM
RPMI-8226 leukemia
  TGI: > 100 µM
786-0 renal
  TGI: > 100 µM
KM12 colon
  TGI: > 100 µM
OVCAR-4 ovarian
  TGI: > 100 µM

## CCOC(=O)N1c2ccccc2C(C)=CC(C)C1C (stereo not drawn)
RXF 393 renal
  TGI: 51 µM
TK-10 renal
  TGI: 51 µM
A549 NSCLC
  TGI: > 100 µM
HCC-2998 colon
  TGI: > 100 µM
HCT-15 colon
  TGI: > 100 µM
RPMI-8226 leukemia
  TGI: > 100 µM
786-0 renal
  TGI: > 100 µM
KM12 colon
  TGI: 83.4 µM
MDA-N
  TGI: 27.3 µM
OVCAR-4 ovarian
  TGI: > 100 µM

## Nc1nc(SCc2ccccc2Cl)c2ncn(C3OC(CO)C(O)C3O)c2n1 (stereo not drawn)
RXF 393 renal
  TGI: > 100 µM
TK-10 renal
  TGI: > 100 µM
A549 NSCLC
  TGI: > 100 µM
U251 CNS
  TGI: > 100 µM
HCC-2998 colon
  TGI: > 100 µM
HCT-15 colon
  TGI: > 100 µM
RPMI-8226 leukemia
  TGI: > 100 µM
786-0 renal
  TGI: > 100 µM
KM12 colon
  TGI: > 100 µM
OVCAR-4 ovarian
  TGI: > 100 µM

## N#C[S-].[La+3].c1ccc(-c2ccccn2)nc1.c1ccc(-c2ccccn2)nc1.c1ccc(-c2ccccn2)nc1
RXF 393 renal
  GI50: 22.5 µM
  TGI: 84.7 µM
TK-10 renal
  GI50: 15.7 µM
  TGI: > 100 µM
A549 NSCLC
  GI50: 28.6 µM
  TGI: > 100 µM
U251 CNS
  GI50: 20.1 µM
  TGI: > 100 µM
HCC-2998 colon
  GI50: 17.4 µM
  TGI: > 100 µM
HCT-15 colon
  GI50: 7.07 µM
  TGI: > 100 µM
KM12 colon
  GI50: 51 µM
  TGI: > 100 µM
OVCAR-4 ovarian
  GI50: 20.4 µM
  TGI: > 100 µM

## Cc1ccc(/C=c2\cc3oc(=O)c4cccc(c4-3)c2=O)cc1
TK-10 renal
  TGI: > 100 µM
U251 CNS
  TGI: > 100 µM
HCC-2998 colon
  TGI: > 100 µM
HCT-15 colon
  TGI: > 100 µM
RPMI-8226 leukemia
  TGI: > 100 µM
786-0 renal
  TGI: > 100 µM
OVCAR-4 ovarian
  TGI: > 100 µM

## CSc1cc(Cl)c(C)cc1S(=O)(=O)NC(=O)NNc1ccc(C)cc1
RXF 393 renal
  TGI: > 100 µM
A549 NSCLC
  TGI: > 100 µM
U251 CNS
  TGI: > 100 µM
HCC-2998 colon
  TGI: 66.1 µM
HCT-15 colon
  TGI: > 100 µM
786-0 renal
  TGI: > 100 µM
KM12 colon
  TGI: > 100 µM
MDA-N
  TGI: > 100 µM
OVCAR-4 ovarian
  TGI: > 100 µM

## [CH3][Sn]([CH3])([CH3])[S]C(=S)N1CCOCC1
RXF 393 renal
  GI50: 0.7 µM
A549 NSCLC
  GI50: 1.07 µM
  TGI: > 92.7 µM
U251 CNS
  GI50: 2.82 µM
  TGI: 11.4 µM
HCC-2998 colon
  GI50: 3.41 µM
  TGI: 15.7 µM
HCT-15 colon
  GI50: 1.81 µM
  TGI: > 100 µM
RPMI-8226 leukemia
  GI50: 0.362 µM
  TGI: 2.22 µM
KM12 colon
  GI50: 2.11 µM
  TGI: 11.1 µM
OVCAR-4 ovarian
  GI50: 0.818 µM
  TGI: 4.21 µM

## COc1ccc(-c2nc3ccccc3c(=O)[nH]2)cc1
RXF 393 renal
  TGI: > 100 µM
TK-10 renal
  TGI: > 100 µM
A549 NSCLC
  TGI: > 100 µM
U251 CNS
  TGI: > 100 µM
HCT-15 colon
  TGI: > 100 µM
RPMI-8226 leukemia
  TGI: > 100 µM
786-0 renal
  TGI: > 100 µM
KM12 colon
  TGI: > 100 µM
MDA-N
  TGI: > 100 µM
OVCAR-4 ovarian
  TGI: 95.1 µM

## NC(Cc1ccccc1)C(=O)OCN1C(=O)C2C3C=CC(C2C1=O)C1C(=O)N(COC(=O)C(N)Cc2ccccc2)C(=O)C31 (stereo not drawn)
RXF 393 renal
  TGI: > 100 µM
TK-10 renal
  TGI: > 100 µM
A549 NSCLC
  TGI: > 100 µM
U251 CNS
  TGI: > 100 µM
HCC-2998 colon
  TGI: > 100 µM
HCT-15 colon
  TGI: 78.4 µM
RPMI-8226 leukemia
  TGI: 48 µM
786-0 renal
  TGI: > 100 µM
MDA-N
  TGI: > 100 µM

## COC(=O)[C@@H]1c2c(oc3cc(CO)cc(O)c3c2=O)C=C[C@H]1O
RXF 393 renal
  TGI: 10.1 µM
TK-10 renal
  TGI: 6.8 µM
A549 NSCLC
  TGI: 34.1 µM
U251 CNS
  TGI: 22.5 µM
HCT-15 colon
  TGI: 9.48 µM
RPMI-8226 leukemia
  TGI: 9.72 µM
786-0 renal
  TGI: 12 µM
KM12 colon
  TGI: 14.8 µM
MDA-N
  TGI: 18.9 µM
OVCAR-4 ovarian
  TGI: 12 µM
